Assays:
[1] = system: tobacco axillary bud growth; experiment: Tobacco axillary bud growth inhibition test, pot plants after top pruning, contact spray; format: in vivo, Nicotiana tabacum, Tsukuba 1 (flue-cured cultivar); conditions: single active ingredient, 20 ml sprayed per plant, 28 days after spraying
Protocol: (§1) Tobacco seedlings of Tsukuba 1 (flue-cured cultivar) were transplanted to 1/5000a Wagner pots filled with Kureha garden nursery soil. The plants were grown in a glasshouse, and the floral axis parts were removed at the time of single-flower bloom of tobacco (top pruning).
(§2) Samples were prepared by diluting the above-mentioned formulation containing 10% of chlorthal-dimethyl with water to predetermined concentrations, and adding thereto the formulation containing 70% of decyl alcohol so as to make each sample have a predetermined concentration, and subjected to the test (Examples 1 to 6). Samples were also prepared by diluting the formulation containing 10% of chlorthal-dimethyl with water to predetermined concentrations, and adding thereto the formulation containing 70% of 2-ethyl hexanol so as to make each sample have a predetermined concentration, and subjected to the test (Examples 7 to 12). Samples were also prepared by diluting the formulation containing 10% of chlorthal-dimethyl with water to predetermined concentrations, and adding thereto the formulation containing 70% of […] so as to make each sample have a predetermined concentration, and subjected to the test (Examples 13 to 18). Furthermore, as Comparative Examples, samples were prepared by diluting samples were also prepared by diluting the formulation containing 10% of chlorthal-dimethyl with water to predetermined concentrations (Comparative Examples 1 to 4), by diluting the formulation containing 70% of decyl alcohol with water to predetermined concentrations (Comparative Examples 5 to 7), and by diluting the formulation containing 70% of […] with water to predetermined concentrations (Comparative Examples 8 to 10), and by diluting the formulation containing 70% of […] with water to predetermined concentrations (Comparative Examples 11 to 13) to be subjected to the test. In addition, butralin (tradename: Blue Ribbon) (Comparative Example 14) was subjected to the test.
(§3) With respect to each of the formulations of the inhibitors for tobacco axillary bud growth, 20 ml of the water-diluted solutions of the respective inhibitors were separately sprayed using a contact-type axillary bud inhibitor spraying instrument equipped with a spot exhaust nozzle. One tobacco plant was planted per pot, and the tests were carried out in duplicate.
For the respective cases, states of inhibition of axillary bud growth 28 days after the spraying were investigated together with untreated groups sprayed with no inhibitor, and axillary bud growth inhibition rates were calculated by the following equation. Axillary bud growth inhibition rate=(fresh weight of axillary buds per plant of untreated group−fresh weight of axillary buds per plant of treated group)÷(fresh weight of axillary buds per plant of untreated group)×100 [Math. 1]
It should be noted that the values in parentheses in Table 1 represent predicted values of the effects of inhibiting axillary bud growth of mixed agents (that is, compounds mixed as active ingredients), that is, expected values of additive effects. The expected values were calculated by the following Colby's equation (Colby. S. R.; “Calculating Synergistic and Antagonistic Responses of Herbicide Combinations” Weed, Vol. 15(1), 20-22, 1967). Colby's equation: E=x+y−x·y/100 [Math. 2]
E: Axillary bud growth inhibition rate in the case of using a mixture of active compound A (concentration a) and active compound B (concentration b) (theoretical axillary bud growth inhibition rate)
x: Axillary bud growth inhibition rate in the case of using active compound A at concentration a
y: Axillary bud growth inhibition rate in the case of using active compound B at concentration b
In the case where a measured value determined in the above-mentioned test (axillary bud growth inhibition rate) was larger than the expected value, a synergetic effect was expressed on activity to suppress axillary bud growth.

[2] = system: tobacco leaves (first to fourth leaves from the top); experiment: Harmful effect of the inhibitor on tobacco leaves (growth inhibition, gangrene, change in color, deformation); format: in vivo, Nicotiana tabacum, Tsukuba 1 (flue-cured cultivar)
Protocol: as §1, §2, §3
Further, the presence or absence of the harmful effect of each inhibitor was evaluated in one of the following four categories depending on the degrees of growth inhibition, gangrene, change in color, deformation and the like of leaves (first to fourth leaves from the top).
Large: A severely harmful effect was observed.
Middle: A clearly harmful effect was observed.
Small: A slightly harmful effect was observed.
Absent: No harmful effect was observed.

COC(=O)c1c(Cl)c(Cl)c(C(=O)OC)c(Cl)c1Cl [Comparative Ex. 1, dimethyl tetrachloroterephthalate]
Axillary bud growth inhibition (%) ([1]; concentration 0.002 %): 1.1% | Harmful effect ([2]; in vivo): None

COC(=O)c1c(Cl)c(Cl)c(C(=O)OC)c(Cl)c1Cl [Comparative Ex. 2, dimethyl tetrachloroterephthalate]
Axillary bud growth inhibition (%) ([1]; concentration 0.005 %): 4.2% | Harmful effect ([2]; in vivo): None

COC(=O)c1c(Cl)c(Cl)c(C(=O)OC)c(Cl)c1Cl [Comparative Ex. 3, dimethyl tetrachloroterephthalate]
Axillary bud growth inhibition (%) ([1]; concentration 0.01 %): 23.4% | Harmful effect ([2]; in vivo): None

COC(=O)c1c(Cl)c(Cl)c(C(=O)OC)c(Cl)c1Cl [Comparative Ex. 4, dimethyl tetrachloroterephthalate]
Axillary bud growth inhibition (%) ([1]; concentration 1 %): 100% | Harmful effect ([2]; in vivo): None

CCCCCCCCCCO [Comparative Ex. 5, Decyl alcohol]
Axillary bud growth inhibition (%) ([1]; concentration 0.7 %): 41.4% | Harmful effect ([2]; in vivo): None

CCCCCCCCCCO [Comparative Ex. 6, Decyl alcohol]
Axillary bud growth inhibition (%) ([1]; concentration 1.4 %): 68.6% | Harmful effect ([2]; in vivo): None

CCCCCCCCCCO [Comparative Ex. 7, Decyl alcohol]
Axillary bud growth inhibition (%) ([1]; concentration 2.6 %): 86.8%

CCCCC(CC)CO (stereo not drawn) [Comparative Ex. 8, 2-ethyl hexanol]
Axillary bud growth inhibition (%) ([1]; concentration 0.7 %): 33.1% | Harmful effect ([2]; in vivo): None

CCCCC(CC)CO (stereo not drawn) [Comparative Ex. 9, 2-ethyl hexanol]
Axillary bud growth inhibition (%) ([1]; concentration 1.4 %): 66.6% | Harmful effect ([2]; in vivo): None

CCCCC(CC)CO (stereo not drawn) [Comparative Ex. 10, 2-ethyl hexanol]
Axillary bud growth inhibition (%) ([1]; concentration 2.6 %): 82.1%

CC(C)=CCC/C(C)=C/CO [Comparative Ex. 11, Geraniol]
Axillary bud growth inhibition (%) ([1]; concentration 0.7 %): 52.1% | Harmful effect ([2]; single active ingredient, concentration 0.7 %, 20 ml sprayed per plant): None

CC(C)=CCC/C(C)=C/CO [Comparative Ex. 12, Geraniol]
Axillary bud growth inhibition (%) ([1]; concentration 1.4 %): 72.5% | Harmful effect ([2]; single active ingredient, concentration 1.4 %, 20 ml sprayed per plant): None

CC(C)=CCC/C(C)=C/CO [Comparative Ex. 13, Geraniol]
Axillary bud growth inhibition (%) ([1]; concentration 2.6 %): 87.9% | Harmful effect ([2]; single active ingredient, concentration 2.6 %, 20 ml sprayed per plant): Medium degree | Harmful effect ([2]; single active ingredient, concentration 2.6 %, 20 ml sprayed per plant, listed as Comparative Example 13): small or medium degree

CCC(C)Nc1c([N+](=O)[O-])cc(C(C)(C)C)cc1[N+](=O)[O-] (stereo not drawn) [Comparative Ex. 14, Butralin]
Axillary bud growth inhibition (%) ([1]; concentration 0.35 %): 98.2% | Harmful effect ([2]; in vivo): Small degree

Reference: patent US9686983B2, “Tobacco axillary bud growth inhibitor and method for inhibiting tobacco axillary bud growth” (SDS BIOTECH K. K., priority 2013, dated 2017)
